Assay results reported in paper PMC6561935, “Hsp90 middle domain phosphorylation initiates a complex conformational program to recruit the ATPase-stimulating cochaperone Aha1” (Nature Communications, 2019).

What was measured:
Hsp90 (human Hsp90α) [1] = target: T1, Hsp90 (human Hsp90α) (Homo sapiens, UniProt P07900, H210A); assay: isothermal titration calorimetry; assay type: binding
T1 construct: gene HSP90AA1; purified full-length Hsp90α, C-terminally dimerized homodimer

Hsp90 (human Hsp90α) [2] = target: T2, Hsp90 (human Hsp90α) (Homo sapiens, UniProt P07900); assay: isothermal titration calorimetry; assay type: binding
T2 construct: gene HSP90AA1; purified full-length Hsp90α, C-terminally dimerized homodimer

Kd (Hsp90 (human Hsp90α) [1]): 170 ± 9.8 µM
Kd (Hsp90 (human Hsp90α) [2]): 220 ± 37 µM
SMILES: Nc1ncnc2c1ncn2[C@@H]1O[C@H](COP(=O)(O)OP(=O)(O)NP(=O)(O)O)[C@@H](O)[C@H]1O [AMPPNP]
